Test results: patent US10676477B2, “Factor XIa macrocycle inhibitors bearing a non-aromatic P2' group” (BRISTOL-MYERS SQUIBB COMPANY, priority 2015, dated 2020)
pKi: −log10 of the molar value. Structures can show the parent of a compound that is named as a salt.

How the values were obtained:
human plasma kallikrein = biological target: T1, human plasma kallikrein (Homo sapiens, UniProt P03952); assay: Plasma kallikrein enzyme inhibition assay (chromogenic substrate S-2302), Ki; type: biochemical; details: purified human plasma kallikrein, substrate S-2302, pH 7.5
T1 construct: purchased Enzyme Research Laboratories
Experimental: (§1) The effectiveness of compounds of the present invention as inhibitors of the coagulation Factors XIa, VIIa, IXa, Xa, XIIa, plasma kallikrein chymotrypsin, trypsin, or thrombin, can be determined using a relevant purified serine protease, respectively, and an appropriate synthetic substrate. The rate of hydrolysis of the chromogenic or fluorogenic substrate by the relevant serine protease was measured both in the absence and presence of compounds of the present invention. […] A decrease in the rate of absorbance or fluorescence change in the presence of inhibitor is indicative of enzyme inhibition. Such methods are known to one skilled in the art. The results of this assay are expressed as the inhibitory constant, Ki.
Plasma kallikrein determinations were made in 0.1 M sodium phosphate buffer at a pH of 7.5 containing 0.1-0.2 M sodium chloride and 0.5% PEG 8000. Determinations were made using purified human plasma kallikrein (Enzyme Research Laboratories) at a final assay concentration of 200 pM and the synthetic substrate S-2302 (H-(D)-Pro-Phe-Arg-pNA; CHROMOGENIX®) at a concentration of 0.00008-0.0004 M.
(§2) The Michaelis constant, Km, for substrate hydrolysis by each protease, was determined at 25° C. or 37° C. in the absence of inhibitor. Values of Ki were determined by allowing the protease to react with the substrate in the presence of the inhibitor. Reactions were allowed to go for periods of 20-180 minutes (depending on the protease) and the velocities (rate of absorbance or fluorescence change versus time) were measured. The following relationships were used to calculate Ki values: (Vmax*S)/(Km+S) (vo−vs)/vs=I/(Ki*(1+S/Km)) for a competitive inhibitor with one binding site; or vs/vo=A+((B−A)/(1+(IC50/(I)^n)); and Ki=IC50/(1+S/Km) for a competitive inhibitor where: […]

human Factor XIa = biological target: T2, human Factor XIa (Homo sapiens, UniProt P03951); assay: Factor XIa enzyme inhibition assay (chromogenic substrate S-2366), Ki; type: biochemical; details: purified human Factor XIa, substrate S-2366, pH 7.4
T2 construct: purchased Haematologic Technologies
Experimental: as §1
Factor XIa determinations were made in 50 mM HEPES buffer at pH 7.4 containing 145 mM NaCl, 5 mM KCl, and 0.1% PEG 8000 (polyethylene glycol; JT Baker or Fisher Scientific). Determinations were made using purified human Factor XIa at a final concentration of 25-200 pM (Haematologic Technologies) and the synthetic substrate S-2366 (pyroGlu-Pro-Arg-pNA; CHROMOGENIX® or AnaSpec) at a concentration of 0.0002-0.001 M.
as §2

T2 sequence (P03951 388-625 limits assumed): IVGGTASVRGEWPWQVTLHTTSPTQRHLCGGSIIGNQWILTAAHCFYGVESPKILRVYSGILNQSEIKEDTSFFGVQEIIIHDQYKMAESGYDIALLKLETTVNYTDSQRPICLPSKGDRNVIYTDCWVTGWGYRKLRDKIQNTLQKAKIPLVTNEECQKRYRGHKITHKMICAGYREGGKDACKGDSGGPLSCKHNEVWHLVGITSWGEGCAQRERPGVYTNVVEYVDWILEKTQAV
T2 sequence (P03951 19-387 partner limits assumed): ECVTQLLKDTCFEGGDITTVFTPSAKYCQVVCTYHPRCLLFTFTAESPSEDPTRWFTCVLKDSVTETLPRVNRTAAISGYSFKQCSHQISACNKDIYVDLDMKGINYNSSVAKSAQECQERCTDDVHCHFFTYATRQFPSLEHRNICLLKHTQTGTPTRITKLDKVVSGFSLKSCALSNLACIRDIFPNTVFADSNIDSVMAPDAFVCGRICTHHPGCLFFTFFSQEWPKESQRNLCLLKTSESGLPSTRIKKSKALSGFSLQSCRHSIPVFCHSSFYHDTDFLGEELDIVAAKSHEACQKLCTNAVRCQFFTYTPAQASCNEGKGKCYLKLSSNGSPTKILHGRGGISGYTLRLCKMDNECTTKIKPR
T1 sequence (P03952 391-638 limits assumed): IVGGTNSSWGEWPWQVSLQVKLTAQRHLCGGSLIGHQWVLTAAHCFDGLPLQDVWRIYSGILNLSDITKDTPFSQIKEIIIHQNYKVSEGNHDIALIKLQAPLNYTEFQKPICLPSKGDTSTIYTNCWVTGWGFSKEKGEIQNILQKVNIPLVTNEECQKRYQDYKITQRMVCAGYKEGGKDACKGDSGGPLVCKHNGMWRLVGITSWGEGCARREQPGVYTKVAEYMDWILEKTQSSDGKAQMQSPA
T1 sequence (P03952 20-390 partner limits assumed): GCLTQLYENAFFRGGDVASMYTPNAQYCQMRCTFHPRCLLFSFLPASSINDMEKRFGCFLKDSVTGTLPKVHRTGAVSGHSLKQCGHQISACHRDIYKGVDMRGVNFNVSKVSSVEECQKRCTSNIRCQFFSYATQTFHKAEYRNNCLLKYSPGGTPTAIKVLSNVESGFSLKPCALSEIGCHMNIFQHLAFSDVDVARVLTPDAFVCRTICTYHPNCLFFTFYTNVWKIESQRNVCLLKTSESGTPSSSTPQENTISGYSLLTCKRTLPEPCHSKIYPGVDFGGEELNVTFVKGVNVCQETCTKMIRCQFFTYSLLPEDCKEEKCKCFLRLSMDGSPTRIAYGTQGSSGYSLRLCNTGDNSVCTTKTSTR

| SMILES | pKi (human plasma kallikrein) | pKi (human Factor XIa) |
| --- | --- | --- |
| O=C1NCCCCC[C@H](n2cnc(-c3cc(Cl)ccc3-n3cc(Cl)nn3)cc2=O)c2cccc(c2)N2CCNC[C@@H]12 [Example 2, (7S,15S)-15-{4-[5-chloro-2-(4-chloro-1H-1,2,3-triazol-1-yl)phenyl]-6-oxo-1,6-dihydropyrimidin-1-yl}-2,5,9-triazatricyclo[14.3.1.0^2,7]icosa-1(20),16,18-trien-8-one hydrochloride] | 5.14 | 6.27 |
| COC(=O)N1CCN2c3cccc(c3)[C@@H](n3cnc(-c4cc(Cl)ccc4-n4cc(Cl)nn4)cc3=O)CCCCCNC(=O)[C@@H]2C1 [Example 3, methyl (7S,15S)-15-{4-[5-chloro-2-(4-chloro-1H-1,2,3-triazol-1-yl)phenyl]-6-oxo-1,6-dihydropyrimidin-1-yl}-8-oxo-2,5,9-triazatricyclo[14.3.1.0^2,7]icosa-1(20),16,18-triene-5-carboxylate] | 5.39 | 6.19 |
| O=C1NCCCCC[C@H](n2cnc(-c3cc(Cl)ccc3-n3cc(Cl)nn3)cc2=O)c2cccc(c2)N2CCNC[C@H]12 [Example 9, (7R,15S)-15-{4-[5-chloro-2-(4-chloro-1H-1,2,3-triazol-1-yl)phenyl]-6-oxo-1,6-dihydropyrimidin-1-yl}-2,5,9-triazatricyclo[14.3.1.0^2,7]icosa-1(20),16,18-trien-8-one hydrochloride] | 5.74 | 7.96 |
| CC(=O)N1CCN2c3cccc(c3)[C@@H](n3cnc(-c4cc(Cl)ccc4-n4cc(Cl)nn4)cc3=O)CCCCCNC(=O)[C@H]2C1 [Example 12, (7R,15S)-5-acetyl-15-{4-[5-chloro-2-(4-chloro-1H-1,2,3-triazol-1-yl)phenyl]-6-oxo-1,6-dihydropyrimidin-1-yl}-2,5,9-triazatricyclo[14.3.1.0^2,7]icosa-1(20),16,18-trien-8-one] | 5.98 | 8.22 |
| CN1CCN2c3cccc(c3)[C@@H](n3cnc(-c4cc(Cl)ccc4-n4cc(Cl)nn4)cc3=O)CCCCCNC(=O)[C@H]2C1 [Example 13, (7R,15S)-15-{4-[5-chloro-2-(4-chloro-1H-1,2,3-triazol-1-yl)phenyl]-6-oxo-1,6-dihydropyrimidin-1-yl}-5-methyl-2,5,9-triazatricyclo[14.3.1.0^2,7]icosa-1(20),16,18-trien-8-one, trifluoromethyl acetate] | 6.36 | 8.00 |
| O=C(O)CN1CCN2c3cccc(c3)[C@@H](n3cnc(-c4cc(Cl)ccc4-n4cc(Cl)nn4)cc3=O)CCCCCNC(=O)[C@H]2C1 [Example 14, 2-[(7R,15S)-15-{4-[5-chloro-2-(4-chloro-1H-1,2,3-triazol-1-yl)phenyl]-6-oxo-1,6-dihydropyrimidin-1-yl}-8-oxo-2,5,9-triazatricyclo[14.3.1.0^2,7]icosa-1(20),16,18-trien-5-yl]acetic acid trifluoromethyl acetate] | 6.97 | 8.30 |
| O=C1NCCCCC[C@H](n2cnc(-c3cc(Cl)ccc3-n3cc(Cl)nn3)cc2=O)c2cccc(c2)N2CCN(C3COC3)C[C@H]12 [Example 16, (7R,15S)-15-{4-[5-chloro-2-(4-chloro-1H-1,2,3-triazol-1-yl)phenyl]-6-oxo-1,6-dihydropyrimidin-1-yl}-5-(oxetan-3-yl)-2,5,9-triazatricyclo[14.3.1.0^2,7]icosa-1(20),16,18-trien-8-one trifluoromethylacetate] | 6.28 | 7.89 |
| CCOC(=O)c1cnc(N2CCN3c4cccc(c4)[C@@H](n4cnc(-c5cc(Cl)ccc5-n5cc(Cl)nn5)cc4=O)CCCCCNC(=O)[C@H]3C2)o1 [Example 17, ethyl 2-[(7R,15S)-15-{4-[5-chloro-2-(4-chloro-1H-1,2,3-triazol-1-yl)phenyl]-6-oxo-1,6-dihydropyrimidin-1-yl}-8-oxo-2,5,9-triazatricyclo[14.3.1.0^2,7]icosa-1(20),16,18-trien-5-yl]-1,3-oxazole-5-carboxylate trifluoromethylacetate] | 5.91 | 7.80 |

Second part, the compound after the results:

| pKi (human plasma kallikrein) | pKi (human Factor XIa) | SMILES |
| --- | --- | --- |
| 5.46 | 6.02 | CC(C)(C)OC(=O)N1CCN2c3cccc(c3)[C@@H](n3cnc(-c4cc(Cl)ccc4-n4cc(Cl)nn4)cc3=O)CCCCCNC(=O)[C@@H]2C1 [Example 1, tert-butyl (7S,15S)-15-{4-[5-chloro-2-(4-chloro-1H-1,2,3-triazol-1-yl)phenyl]-6-oxo-1,6-dihydropyrimidin-1-yl}-8-oxo-2,5,9-triazatricyclo[14.3.1.0^2,7]icosa-1(20),16,18-triene-5-carboxylate] |
| 5.50 | 5.04 | CC(C)(C)OC(=O)N1CC(=O)N2c3cccc(c3)[C@@H](n3cnc(-c4cc(Cl)ccc4-n4cc(Cl)nn4)cc3=O)CCCCCNC(=O)[C@@H]2C1 [Example 4, tert-butyl (7S,15S)-15-{4-[5-chloro-2-(4-chloro-1H-1,2,3-triazol-1-yl)phenyl]-6-oxo-1,6-dihydropyrimidin-1-yl}-3,8-dioxo-2,5,9-triazatricyclo[14.3.1.0^2,7]icosa-1(20),16,18-triene-5-carboxylate] |
| 5.22 | 6.56 | CC(C)(C)OC(=O)N1CC(=O)N2c3cccc(c3)[C@@H](n3cnc(-c4cc(Cl)ccc4-n4cc(Cl)nn4)cc3=O)CCCCCNC(=O)[C@H]2C1 [Example 5, tert-butyl (7R,15S)-15-{4-[5-chloro-2-(4-chloro-1H-1,2,3-triazol-1-yl)phenyl]-6-oxo-1,6-dihydropyrimidin-1-yl}-3,8-dioxo-2,5,9-triazatricyclo[14.3.1.0^2,7]icosa-1(20),16,18-triene-5-carboxylate] |
| 4.89 | 5.22 | O=C1NCCCCC[C@H](n2cnc(-c3cc(Cl)ccc3-n3cc(Cl)nn3)cc2=O)c2cccc(c2)N2C(=O)CNC[C@@H]12 [Example 6, (7S,15S)-15-{4-[5-chloro-2-(4-chloro-1H-1,2,3-triazol-1-yl)phenyl]-6-oxo-1,6-dihydropyrimidin-1-yl}-2,5,9-triazatricyclo[14.3.1.0^2,7]icosa-1(20),16,18-triene-3,8-dione hydrochloride] |
| 5.32 | 7.01 | O=C1NCCCCC[C@H](n2cnc(-c3cc(Cl)ccc3-n3cc(Cl)nn3)cc2=O)c2cccc(c2)N2C(=O)CNC[C@H]12 [Example 7, (7R,15S)-15-{4-[5-chloro-2-(4-chloro-1H-1,2,3-triazol-1-yl)phenyl]-6-oxo-1,6-dihydropyrimidin-1-yl}-2,5,9-triazatricyclo[14.3.1.0^2,7]icosa-1(20),16,18-triene-3,8-dione hydrochloride] |
| 5.96 | 7.68 | CC(C)(C)OC(=O)N1CCN2c3cccc(c3)[C@@H](n3cnc(-c4cc(Cl)ccc4-n4cc(Cl)nn4)cc3=O)CCCCCNC(=O)[C@H]2C1 [Example 8, tert-butyl (7R,15S)-15-{4-[5-chloro-2-(4-chloro-1H-1,2,3-triazol-1-yl)phenyl]-6-oxo-1,6-dihydropyrimidin-1-yl}-8-oxo-2,5,9-triazatricyclo[14.3.1.0^2,7]icosa-1(20),16,18-triene-5-carboxylate] |
| 6.06 | 8.30 | COC(=O)N1CCN2c3cccc(c3)[C@@H](n3cnc(-c4cc(Cl)ccc4-n4cc(Cl)nn4)cc3=O)CCCCCNC(=O)[C@H]2C1 [Example 10, methyl (7R,15S)-15-{4-[5-chloro-2-(4-chloro-1H-1,2,3-triazol-1-yl)phenyl]-6-oxo-1,6-dihydropyrimidin-1-yl}-8-oxo-2,5,9-triazatricyclo[14.3.1.0^2,7]icosa-1(20),16,18-triene-5-carboxylate] |
| 6.34 | 7.96 | CC(C)(C)OC(=O)CN1CCN2c3cccc(c3)[C@@H](n3cnc(-c4cc(Cl)ccc4-n4cc(Cl)nn4)cc3=O)CCCCCNC(=O)[C@H]2C1 [Example 11, tert-butyl 2-[(7R,15S)-15-{4-[5-chloro-2-(4-chloro-1H-1,2,3-triazol-1-yl)phenyl]-6-oxo-1,6-dihydropyrimidin-1-yl}-8-oxo-2,5,9-triazatricyclo[14.3.1.0^2,7]icosa-1(20),16,18-trien-5-yl]acetate trifluoromethylacetate] |
| 5.46 | 6.31 | CC(C)(C)OC(=O)N1CCN2c3cccc(c3)[C@@H](n3cnc(-c4cc(Cl)ccc4-n4cc(Cl)nn4)cc3=O)CCCCNC(=O)[C@H]2C1 [Example 15, tert-butyl (7R,14S)-14-{4-[5-chloro-2-(4-chloro-1H-1,2,3-triazol-1-yl)phenyl]-6-oxo-1,6-dihydropyrimidin-1-yl}-8-oxo-2,5,9-triazatricyclo[13.3.1.0^2,7]nonadeca-1(19),15,17-triene-5-carboxylate, trifluoromethylacetate] |
